According to US20010016731A1, “Methods and apparatus for accelerated orthokeratology” (priority 1998, published 2001):

Legend:
[1] = test system: enucleated pig eyes (cornea); experiment: Experiment 2: enucleated pig eyes, EYESYS topographical mapping and slit lamp; conditions: 0.3M sodium persulfate, UV about 30 seconds
Procedure: Second set of experiments also using enucleated pig eyes. an EYESYS topographical system was available to perform topographical mapping of the eyes before and after treatment. In addition, the EFOS Ultracure 100SS was available for UV light treatment. In a control part of the experiment, an eye was examined using a slit lamp and using the EYESYS system. Neither glutaric anhydride nor sodium persulfate were administered prior to application of UV light exposure. However, buffers were administered to simulate full treatment. […] In a second part of the experiment, a second pig eye was examined by slit lamp, and EYESYS. Topographical profiles were printed. The eye was them soaked in phosphate buffer at pH 8.5 for 2 minutes. Glutaric anhydride at 10 mg/ml was prepared in an alcohol solution and immediately administered to the eye. A contact lens was applied to the eye and held in place for 1 minute. The eye was then soaked in a sodium persulfate solution (0.3M sodium persulfate in pH 8.5 buffer) with the lens still in place. After several one (1) minute soaks in the sodium persulfate solution, the eye was exposed to UV light for about 30 seconds. The lens was removed and the eye washed with phosphate buffer, pH 7.2. The eye was then examined by slit lamp and EYESYS. […] In a third part of the experiment, a third eye was treated the same as above, expect that the glutaric anhydride was delivered in a phosphate buffer, pH 8.5, in an attempt to prevent the clouding observed using alcohol.

[2] = test system: rabbit's eyes (cornea); experiment: Experiment 3: live rabbit eye, EYESYS topography and slit-lamp; type: in vivo; conditions: glutaric anhydride 20 mg/ml in pH 8.5 phosphate buffer, contact lens, 0.3M sodium persulfate, UV two 30 second bursts
Procedure: Third set of experiments using a live rabbit. Both the EYESYS topographical system and EFOS Ultracure 100SS were available. The rabbit's eyes were examined by slit-lamp and EYESYS. Topographical profiles were printed. The control eye was left untreated. The experimental eye was exposed to 0.02M phosphate buffer, pH 8.5, and treated with glutaric anhydride at 20 mg/ml in pH 8.5 phosphate buffer followed by application of a contact lens. The eye was then washed with 0.02M phosphate buffer, pH 8.5 to remove residual glutaric acid, soaked with buffer containing 0.3M sodium persulfate and exposed to UV light for two 30 second bursts with the contact lens in place. Both the control and treated eyes were examined by slit-lamp and EYESYS. Topographical profiles were printed.

[3] = test system: enucleated pig eyes (cornea)
[4] = glutaric anhydride 10 mg/ml in alcohol solution, contact lens 1 minute
[5] = contact lens without destabilization, sodium persulfate solution then UV about 30 seconds

slit lamp examination (corneal clouding) [1, 4] | slit lamp examination (corneal clouding) ([1]; glutaric anhydride delivered in phosphate buffer pH 8.5, contact lens, compared with alcohol solution) | slit-lamp examination of treated eye [2] | time for corneal haze to clear [2] | Structure (SMILES) | EYESYS examination (eye topography) [1, 4] | EYESYS examination (eye topography) ([1]; glutaric anhydride delivered in phosphate buffer pH 8.5, contact lens) | surface topography of treated eye (EYESYS) [2] | indentations and ridges created by the lens ([3]; 10 mg/ml glutaric anhydride 1 minute, contact lens, 0.3M sodium persulfate, UV 20 seconds) | K-readings after UV treatment ([3]; 10 mg/ml glutaric anhydride 1 minute, contact lens, 0.3M sodium persulfate, UV 20 seconds, pretreatment 36.75/37.5) | persistence of ridge created by the contact lens [3, 5] | slit-lamp appearance of eyes after treatment [3, 5]
some cloudiness | much less corneal clouding | some corneal haze | about 1 hour | O=C1CCCC(=O)O1 [glutaric anhydride] | eye topography had been changed | topographical changes appearing to match the curvature of the applied contact lens | obvious change in surface topography | observed immediately post-treatment and 1 hour after treatment | too steep to read and rather distorted | – | –
– | – | – | – | O=S(=O)([O-])OOS(=O)(=O)[O-].[Na+].[Na+] [sodium persulfate] | – | – | – | – | – | visible after 1 hour | clear
